Data as given in patent US11464763B2, “Parasiticidal compositions comprising an isoxazoline active agent, methods and uses thereof” (BOEHRINGER INGELHEIM ANIMAL HEALTH USA INC., priority 2011, dated 2022).
In brackets after ≈: the same amount, converted by molar mass.

Assays:
D. variabilis = assay: Efficacious plasma concentration (EC90) against D. variabilis ticks in dogs (Example 13); format: in vivo, Dermacentor variabilis; conditions: for EC90 (concentration required to achieve 90% efficacy): plasma concentration
Procedure: Blood samples were collected from all dogs in the study on Days −6, 0 (at 4 h and 12 h), 1, 2, 9, 16, 23, 30, 36, 44, 51, 58, 64, 72, 79 and 86. Plasma samples were analyzed for the concentration of Compound A using an LC/MS/MS analytical method that was GLP validated for the purpose.
(§1) Plasma concentrations of Compound A from dogs in the studies of Examples 1 and 4 were determined according to the description in Example 1, and the plasma concentration versus % efficacy against A. americanum and D. variabilis were fit to a Sigmoidal Emax model. […] Since Compound A is systemically active, the lower concentration of the compound in the plasma required to achieve 90% efficacy from the topical compositions of the invention is surprising and unexpected.

Otodectes cynotis = assay: Spot-on efficacy against Otodectes cynotis (ear mites) in cats (Example 12); format: in vivo; conditions: live mite count Day 14
Procedure: The efficacy of two spot-on compositions comprising Compound A at doses of 5 mg/kg and 10 mg/kg against Otodectes cynotis in cats was evaluated compared to an untreated control. Eighteen healthy cats were grouped into three study groups consisting of six cats per group. Cats in the treatment groups were infested with Otodectes cynotis obtained from naturally infested donor cats prior to acclimation on Day −7. Group 1 was an untreated control group. Cats in Groups 2 and 3 were treated once on Day 0 with a spot-on composition comprising Compound A at two different concentrations and doses by application of the formulation directly on the skin in the midline of the neck between the base of the skull and the shoulder blades with a 1 mL disposable syringe. Cats in Group 2 were treated with a spot-on composition containing 5.0% (w/v) Compound A in a carrier containing 40% (v/v) diethyl sebacate (DES) in dimethylisosorbide (DMI) at a dose of 5 mg/kg body weight; and cats in Group 3 were treated with a spot-on composition containing 10.0% (w/v) Compound A in a carrier containing 40% (v/v) DES in DMI at a dose of 10 mg/kg body weight. […] Visible live ear mites (adult or immature) were counted and debris/cerumen level was estimated for both ear ducts. A quantitative assessment of ear mites by ear duct flushing, mite collection and live mite count was performed on Day 14. […]

R. sanguineus = assay: Efficacious plasma concentration (EC90) against R. sanguineus ticks in dogs (Example 13); format: in vivo, Rhipicephalus sanguineus; conditions: for EC90 (concentration required to achieve 90% efficacy): plasma concentration
A. americanum = assay: Efficacious plasma concentration (EC90) against A. americanum ticks in dogs (Example 13); format: in vivo, Amblyomma americanum; conditions: for EC90 (concentration required to achieve 90% efficacy): plasma concentration
Procedure: Blood samples were collected from all dogs on Days −5, 0 (at 4 h and 12 h), 1, 2, 9, 16, 23, 30, 37 and 44. Plasma samples were analyzed for the concentration of Compound A using a LC/MS/MS method that was GLP validated for the analysis of the compound.
as §1

Ctenocephalides felis = assay: Spot-on efficacy against Ctenocephalides felis fleas on dogs, 40% DES/DMI (Example 5); format: in vivo; conditions: 4.0 mg/kg
Procedure: The efficacy of a formulation comprising an isoxazoline compound (Cmpd. A) in a carrier comprising 40% DES/DMI against Ctenocephalides felis fleas and Rhipicephalus sanguineus ticks in Dogs was studied. […] Three treatment groups containing three dogs each were evaluated. All dogs were treated once topically on Day 0 by parting the hair and applying the solution from a syringe directly onto the skin in a single spot on the midline of the neck between the base of the skull and the shoulder blades.
Treatment Group 1 was a placebo control and received 0.067 mL/kg of body weight. Treatment Group 2 was administered a topical spot-on formulation comprising 6.0% (w/v) Cmpd. A in 40% DES/DMI to deliver a dose of 4.0 mg/kg body weight. Treatment Group 3 was administered a topical spot-on formulation comprising 12% (w/v) Cmpd. A in 40% DES/DMI to deliver a dose of 4.0 mg/kg body weight.
All dogs were infested with approximately 100 C. felis on Days −1, 7, 14, 21, 28, 35 and 42. Fleas were counted upon removal from dogs approximately 24 hours post infestation on Days 1, 8, 15, 22, 29, 36 and 43. The % reduction (efficacy) of each Treatment Group over time is listed in Tables 6A, 6B and 7, respectively.

[1] = dogs, topical compositions, Sigmoidal Emax model

## O=C(CNC(=O)c1ccc(C2=NOC(c3cc(Cl)cc(C(F)(F)F)c3)(C(F)(F)F)C2)c2ccccc12)NCC(F)(F)F (stereo not shown) [Compound A, 4-[5-[3-chloro-5-(trifluoromethyl)phenyl]-4,5-dihydro-5-(trifluoromethyl)-3-isoxazolyl]-N-[2-oxo-2-[(2,2,2-trifluoroethyl)amino]ethyl]-1-naphthalanecarboxamide]
D. variabilis; dogs, topical vs oral
  concentration required to achieve 90% efficacy, lower than the concentration required from oral administration: ~36%
D. variabilis; [1]
  EC90 (concentration required to achieve 90% efficacy): 0.07 µg/mL (≈ 0.112 µM)
D. variabilis; oral dosage form
  EC90 (concentration required to achieve 90% efficacy): 0.11 µg/mL (≈ 0.176 µM)
Otodectes cynotis; Group 2: 5.0% in 40% DES in DMI, 5 mg/kg
  reduced the infestation of ear mites: 99.0%
Otodectes cynotis; Group 3: 10.0% in 40% DES in DMI, 10 mg/kg
  reduced the infestation of ear mites: 100.0%
R. sanguineus; dogs, topical vs oral
  concentration required to achieve 90% efficacy, lower than the concentration required from oral administration: ~32%
R. sanguineus; oral dosage form
  EC90 (concentration required to achieve 90% efficacy): 0.101 µg/mL (≈ 0.161 µM)
R. sanguineus; topical, separate study
  EC90 (concentration required to achieve 90% efficacy): 0.069 µg/mL (≈ 0.11 µM)
A. americanum; dogs, topical vs oral
  concentration required to achieve 90% efficacy, lower than the concentration required from oral administration: about 42%
A. americanum; [1]
  EC90 (concentration required to achieve 90% efficacy): 0.092 µg/mL (≈ 0.147 µM)
A. americanum; oral dosage form
  EC90 (concentration required to achieve 90% efficacy): 0.158 µg/mL (≈ 0.252 µM)
Ctenocephalides felis; Group 2: 6.0% in 40% DES/DMI, Day 1
  % Reduction: 100.0%
Ctenocephalides felis; Group 2: 6.0% in 40% DES/DMI, Day 8
  % Reduction: 100.0%
Ctenocephalides felis; Group 2: 6.0% in 40% DES/DMI, Day 15
  % Reduction: 100.0%
Ctenocephalides felis; Group 2: 6.0% in 40% DES/DMI, Day 22
  % Reduction: 100.0%
Ctenocephalides felis; Group 2: 6.0% in 40% DES/DMI, Day 29
  % Reduction: 100.0%
Ctenocephalides felis; Group 2: 6.0% in 40% DES/DMI, Day 36
  % Reduction: 100.0%
Ctenocephalides felis; Group 2: 6.0% in 40% DES/DMI, Day 43
  % Reduction: 99.2%
Ctenocephalides felis; Group 3: 12% in 40% DES/DMI, Day 1
  % Reduction: 100.0%
Ctenocephalides felis; Group 3: 12% in 40% DES/DMI, Day 8
  % Reduction: 100.0%
Ctenocephalides felis; Group 3: 12% in 40% DES/DMI, Day 15
  % Reduction: 100.0%
Ctenocephalides felis; Group 3: 12% in 40% DES/DMI, Day 22
  % Reduction: 100.0%
Ctenocephalides felis; Group 3: 12% in 40% DES/DMI, Day 29
  % Reduction: 100.0%
Ctenocephalides felis; Group 3: 12% in 40% DES/DMI, Day 36
  % Reduction: 100.0%
Ctenocephalides felis; Group 3: 12% in 40% DES/DMI, Day 43
  % Reduction: 100.0%
